Data set [1] concerns Staphylococcus aureus (SAUR 9213). As to the kind of experiment: MIC by standard agar dilution method. The format is cell-based. The settings on record: Mueller Hinton agar, incubated overnight at 35° C., read-out: MIC. An excerpt: The antibacterial agents of this invention have useful activity against a variety of organisms. The in vitro activity of compounds of this invention can be assessed by standard testing procedures such as the determination of minimum inhibitory concentration (MIC) by agar dilution as described in “Approved Standard. Methods for Dilution Antimicrobial Susceptibility Tests for Bacteria That Grow Aerobically”, 3rd. ed., published 1993 by the National Committee for Clinical Laboratory Standards, Villanova, Pa., USA. The in vitro MICs of test compounds are determined by a standard agar dilution method. A stock drug solution of each analog is prepared in the preferred solvent, usually DMSO:H2O (1:3). Serial 2-fold dilutions of each sample are made using 1.0 ml aliquots of sterile distilled water. To each 1.0 ml aliquot of drug is added 9 ml of molten Mueller Hinton agar medium. The drug-supplemented agar is mixed, poured into 15×100 mm petri dishes, and allowed to solidify and dry prior to inoculation. Vials of each of the test organisms are maintained frozen in the vapor phase of a liquid nitrogen freezer. Test cultures are grown overnight at 35° C. on the medium appropriate for the organism. Colonies are harvested with a sterile swab, and cell suspensions are prepared in Trypticase Soy broth (TSB) to equal the turbidity of a 0.5 McFarland standard. A 1:20 dilution of each suspension is made in TSB. The plates containing the drug supplemented agar are inoculated with a 0.001 ml drop of the cell suspension using a Steers replicator, yielding approximately 10^4 to 10^5 cells per spot. The plates are incubated overnight at 35° C. Following incubation the Minimum Inhibitory Concentration (MIC μg/ml), the lowest concentration of drug that inhibits visible growth of the organism, is read and recorded.
(In general: In agar dilution, organisms are placed on agar that contains the substance at set levels.)

Values after ≈ are worked out from the molar mass of the structure shown.

With `CONC(=O)[C@H]1CN(c2ccc(N3CCOCC3)c(F)c2)C(=O)O1` [Example 5, (5R)-(−)-3-[3-Fluoro-4-(4-morpholinyl)phenyl]-N-methoxy-2-oxo-5-oxazolidinecarboxamide], the melting point was 206 to 208 °C (dec.). Besides, the MIC in data set [1] worked out at 16 µg/mL (≈ 47.2 µM).
For `O=C(NO)[C@H]1CN(c2ccc(N3CCOCC3)c(F)c2)C(=O)O1` [Example 6, (5R)-(−)-3-[3-Fluoro-4-(4-morpholinyl)phenyl]-N-hydroxy-2-oxo-5-oxazolidinecarboxamide], in that order: 141 to 143 °C and 16 µg/mL (≈ 49.2 µM).
Taken in the same sequence, the figures for `NC(=O)[C@H]1CN(c2ccc(-c3cccnc3)c(F)c2)C(=O)O1` [Example 7, (5R)-(−)-3-[4-(3-Pyridyl)-3-fluorophenyl]-2-oxo-5-oxazolidinecarboxamide] were 240 to 242 °C (dec.) and 2 µg/mL (≈ 6.64 µM).
For `NC(=O)[C@H]1CN(c2ccc(-c3ccncc3)c(F)c2)C(=O)O1` [Example 8, (5R)-(−)-3-[4-(4-Pyridyl)-3-fluorophenyl]-2-oxo-5-oxazolidinecarboxamide], in that order: 256 to 259 °C (dec.) and 1 µg/mL (≈ 3.32 µM).
In turn, `NC(=O)[C@H]1CN(c2ccc(C3=CCOCC3)c(F)c2)C(=O)O1` [Example 9, (5R)-(−)-3-[4-(3,6-Dihydro-2H-pyran-4-yl)-3-fluorophenyl]-2-oxo-5-oxazolidinecarboxamide] displayed a melting point of 164 to 169 °C. Also, in data set [1], the MIC stood at 4 µg/mL (≈ 13.1 µM).
For `NC(=O)[C@H]1CN(c2ccc(C3CCOCC3)c(F)c2)C(=O)O1` [Example 10, (5R)-(−)-3-[4-(Tetrahydro-2H-pyran-4-yl)-3-fluorophenyl]-2-oxo-5-oxazolidinecarboxamide], in that order: 153 to 156 °C and 4 µg/mL (≈ 13 µM).
Take `NC(=O)[C@H]1CN(c2ccc(C3=CC[S+]([O-])CC3)c(F)c2)C(=O)O1` (stereo partly drawn) [Example 11, (5R)-3-[4-(3,6-Dihydro-2H-thiopyran-4-yl)-3-fluorophenyl]-2-oxo-5-oxazolidinecarboxamide S-oxide]: the melting point was 182 to 184 °C (dec.). Further, in data set [1], the MIC stood at 4 µg/mL (≈ 11.8 µM).
`NC(=O)[C@H]1CN(c2ccc(C3=CCS(=O)(=O)CC3)c(F)c2)C(=O)O1` [Example 12, (5R)-(−)-3-[4-(3,6-Dihydro-2H-thiopyran-4-yl)-3-fluorophenyl]-2-oxo-5-oxazolidinecarboxamide S,S-dioxide]: the melting point was in the range of 206 to 208 °C. The MIC in data set [1] is 2 µg/mL (≈ 5.64 µM).
Regarding `NC(=O)[C@H]1CN(c2ccc(C3CCS(=O)(=O)CC3)c(F)c2)C(=O)O1` [Example 13, (5R)-(−)-3-[4-(Tetrahydro-2H-thiopyran-4-yl)-3-fluorophenyl]-2-oxo-5-oxazolidinecarboxamide S,S-dioxide], the melting point is 229 to 231 °C (dec.). Also, the MIC in data set [1] stood at 2 µg/mL (≈ 5.61 µM).
Taken in the same sequence, the figures for `NC(=O)[C@H]1CN(c2ccc(N3CCN(C(=O)CO)CC3)c(F)c2)C(=O)O1` [Example 14, (5R)-(−)-3-[3-Fluoro-4-[4-(hydroxyacetyl)-1-piperazinyl]phenyl]-2-oxo-5-oxazolidinecarboxamide] were 232 to 235 °C (dec.) and 4 µg/mL (≈ 10.9 µM).
For `NC(=O)[C@H]1CN(c2cc(F)c(N3CCS(=O)(=O)CC3)c(F)c2)C(=O)O1` [Example 15, (5R)-(−)-3-[4-(Thiomorpholin-4-yl)-3,5-difluorophenyl]-2-oxo-5-oxazolidinecarboxamide S,S-dioxide], in that order: 245 to 248 °C (dec.) and 2 µg/mL (≈ 5.33 µM).
For `NC(=O)[C@H]1CN(c2cc(F)c(N3CCOCC3)c(F)c2)C(=O)O1` [Example 17, (5R)-(−)-3-[3,5-Difluoro-4-(4-morpholinyl)phenyl]-2-oxo-5-oxazolidinecarboxamide], in that order: 181 to 183 °C and 4 µg/mL (≈ 12.2 µM).
For the compound `NC(=O)[C@H]1CN(c2ccc(N3CCS(=O)(=O)CC3)cc2)C(=O)O1` [Example 18, (5R)-(−)-3-[4-(Thiomorpholin-4-yl)phenyl]-2-oxo-5-oxazolidinecarboxamide S,S-dioxide], the melting point is 226 to 228 °C. Further, the MIC in data set [1] was 16 µg/mL (≈ 47.1 µM).
In the case of `NC(=O)[C@H]1CN(c2ccc(N3CCS(=O)(=O)CC3)c(F)c2)C(=O)O1` [Example 20, (5R)-(−)-3-[3-Fluoro-4-(thiomorpholin-4-yl)phenyl]-2-oxo-5-oxazolidinecarboxamide S,S-dioxide], the melting point is 245 to 247 °C (dec.). The MIC in data set [1] was 4 µg/mL (≈ 11.2 µM).
For `NC(=O)[C@H]1CN(c2ccc(N3CC[S+]([O-])CC3)c(F)c2)C(=O)O1` [Example 21, (5R)-(−)-3-[3-Fluoro-4-(thiomorpholin-4-yl)phenyl]-2-oxo-5-oxazolidinecarboxamide S-oxide], in that order: 264 to 266 °C (dec.) and 8 µg/mL (≈ 23.4 µM).
As to `NC(=O)[C@H]1CN(c2cc(F)c(N3CC[S+]([O-])CC3)c(F)c2)C(=O)O1` [Example 22, (5R)-(−)-3-[3,5-Difluoro-4-(thiomorpholin-4-yl)phenyl]-2-oxo-5-oxazolidinecarboxamide S-oxide], the melting point is 273 to 276 °C (dec.). For the same compound, the MIC in data set [1] is 4 µg/mL (≈ 11.1 µM).
`NC(=O)[C@H]1CN(c2ccc([C@H]3CC[S@@+]([O-])CC3)c(F)c2)C(=O)O1` [Example 23, (5R)-3-[3-Fluoro-4-(cis-tetrahydro-1-oxido-2H-thiopyran-4-yl)phenyl]-2-oxo-5-oxazolidinecarboxamide]: the melting point is 279 to 281 °C (dec.). Besides, the MIC in data set [1] turned out to be 4 µg/mL (≈ 11.8 µM).
In the case of `NC(=O)[C@H]1CN(c2ccc([C@H]3CC[S@+]([O-])CC3)c(F)c2)C(=O)O1` [Example 24, (5R)-3-[3-Fluoro-4-(trans-tetrahydro-1-oxido-2H-thiopyran-4-yl)phenyl]-2-oxo-5-oxazolidinecarboxamide], the melting point lay within 201 to 203 °C. For the same compound, the MIC in data set [1] was determined as 2 µg/mL (≈ 5.88 µM).
`NC(=O)[C@H]1CN(c2ccc(C3CCS(=O)(=O)CC3)cc2)C(=O)O1` [Example 25, (5R)-(−)-3-[4-(tetrahydro-2H-thiopyran-4-yl)phenyl]-2-oxo-5-oxazolidinecarboxamide S,S-dioxide] had a melting point of 211 to 212 °C. Further, the MIC in data set [1] was found to be 8 µg/mL (≈ 23.6 µM).
For `NC(=O)[C@H]1CN(c2ccc([C@H]3CC[S@@+]([O-])CC3)cc2)C(=O)O1` [Example 26, (5R)-3-[4-(cis-tetrahydro-1-oxido-2H-thiopyran-4-yl)phenyl]-2-oxo-5-oxazolidinecarboxamide], in that order: 269 to 273 °C (dec.) and 16 µg/mL (≈ 49.6 µM).
Consider `NC(=O)[C@H]1CN(c2ccc([C@H]3CC[S@+]([O-])CC3)cc2)C(=O)O1` [Example 27, (5R)-3-[4-(trans-tetrahydro-1-oxido-2H-thiopyran-4-yl)phenyl]-2-oxo-5-oxazolidinecarboxamide], for which the melting point was in the range of 174 to 175 °C. Besides, the MIC in data set [1] amounted to 8 µg/mL (≈ 24.8 µM).
Taken in the same sequence, the figures for `Cn1c(=O)sc2cc(N3C[C@H](C(N)=O)OC3=O)ccc21` [Example 29, (5R)-(−)-3-(2,3-Dihydro-3-methyl-2-oxo-6-benzothiazolyl)-2-oxo-5-oxazolidinecarboxamide] were 274 to 276 °C (dec.) and 1 µg/mL (≈ 3.41 µM).
`CCn1c(=O)sc2cc(N3C[C@H](C(N)=O)OC3=O)ccc21` [Example 30, (5R)-(−)-3-(2,3-Dihydro-3-ethyl-2-oxo-6-benzothiazolyl)-2-oxo-5-oxazolidinecarboxamide] gave a melting point of 211 to 212.5 °C. Moreover, the MIC in data set [1] came to 1 µg/mL (≈ 3.25 µM).
Taken in the same sequence, the figures for `CC(C)n1c(=O)sc2cc(N3C[C@H](C(N)=O)OC3=O)ccc21` [Example 31, (5R)-(−)-3-(2,3-Dihydro-3-isopropyl-2-oxo-6-benzothiazolyl)-2-oxo-5-oxazolidinecarboxamide] were 183 to 184.5 °C and 1 µg/mL (≈ 3.11 µM).
For `CNC(=O)[C@H]1CN(c2ccc3c(c2)sc(=O)n3C)C(=O)O1` [Example 32, (5R)-(−)-N-Methyl-3-(2,3-dihydro-3-methyl-2-oxo-6-benzothiazolyl)-2-oxo-5-oxazolidinecarboxamide], in that order: 264 to 267 °C and 1 µg/mL (≈ 3.25 µM).
Taken in the same sequence, the figures for `CCNC(=O)[C@H]1CN(c2ccc3c(c2)sc(=O)n3C)C(=O)O1` [Example 33, (5R)-(−)-N-Ethyl-3-(2,3-dihydro-3-methyl-2-oxo-6-benzothiazolyl)-2-oxo-5-oxazolidinecarboxamide] were 224.5 to 226 °C and 4 µg/mL (≈ 12.4 µM).
In turn, `Cn1c(=O)sc2cc(N3C[C@H](C(=O)NCCO)OC3=O)ccc21` [Example 34, (5R)-(−)-N-(2-Hydroxyethyl)-3-(2,3-dihydro-3-methyl-2-oxo-6-benzothiazolyl)-2-oxo-5-oxazolidinecarboxamide] gave a melting point of 217 to 219 °C. In data set [1], the MIC was determined as 8 µg/mL (≈ 23.7 µM).

In general, MIC refers to the smallest concentration in the dilution series that meets the test's criterion for growth inhibition. As a reminder, the melting point is the temperature of the solid-liquid transition.
